# From publication PMC3974814, “In Vitro Evaluation of the Inhibitory Potential of Pharmaceutical Excipients on Human Carboxylesterase 1A and 2” (PLoS ONE, 2014)
# Tests used:
# CES1A1 and CES2 = target: CES1A1 and CES2; parameters: method as in PMID 20810539; settings: human CES enzyme activity; isoform per drug not stated; read-out: inhibition constant (Ki); cited from earlier work
# recombinant human CES1A1 [1] = target: T1, recombinant human CES1A1 (Homo sapiens, UniProt P23141); experiment: Imidapril hydrolase activity (imidaprilat formation) of recombinant CES1A1; type: biochemical
# T1 construct: purchased BD Gentest (Woburn, MA); host or cells: baculovirus-insect cells
# T1 sequence (P23141 18-567): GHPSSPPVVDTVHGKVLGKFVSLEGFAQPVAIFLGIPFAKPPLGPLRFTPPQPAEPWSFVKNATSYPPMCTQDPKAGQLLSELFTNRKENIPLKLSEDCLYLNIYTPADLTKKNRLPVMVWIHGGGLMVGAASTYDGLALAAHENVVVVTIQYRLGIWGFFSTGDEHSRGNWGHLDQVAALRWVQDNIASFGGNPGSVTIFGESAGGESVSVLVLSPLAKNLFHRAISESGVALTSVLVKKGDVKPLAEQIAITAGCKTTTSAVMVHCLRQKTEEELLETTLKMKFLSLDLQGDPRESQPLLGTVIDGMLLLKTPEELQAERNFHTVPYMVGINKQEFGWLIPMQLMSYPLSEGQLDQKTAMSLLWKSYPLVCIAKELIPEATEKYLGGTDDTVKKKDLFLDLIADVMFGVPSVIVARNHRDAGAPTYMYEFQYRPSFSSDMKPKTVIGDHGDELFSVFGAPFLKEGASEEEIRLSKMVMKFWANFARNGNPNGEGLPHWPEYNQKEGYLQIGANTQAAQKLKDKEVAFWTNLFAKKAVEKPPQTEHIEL
# Experimental: (§1) Formation of imidaprilat from imidapril was determined according to the method described previously with a slight modification. The incubation mixture (200 μl of total volume), including the microsomes, 100 mM Tris-HCl buffer (pH 7.4) and inhibitors, was preincubated at 37°C for 2 min. The reaction was initiated by the addition of imidapril (100 μM), followed by incubation of the mixture at 37°C for 15 min. The reaction was terminated by adding 200 μl of ice-cold ethyl acetate and the mixture was next dried under N2. Cetirizine was added as an internal standard. After centrifugation at 15000 g for 5 min, imidaprilat in the supernatant (10 μl) was quantified employing a liquid chromatography-tandem mass spectrometry system. Diamonsil C18 (5 μm,150×2.1 mm) was used as the analytical column, with acetonitrile-0.1% (v/v) formic acid (1∶2, v/v) as the mobile phase at a flow rate of 0.3 mL·min^−1. The calibration curve of imidaprilat in the incubation mixture was linear over a concentration range of 5–1000 ng·ml^−1 (r = 0.9991). Interday and intraday coefficients of variation of the different quality control samples were both less than 10%.
# The inhibitory effects of 25 excipients on imidapril and CPT-11 hydrolase activities were investigated. These excipients were classified into 6 groups based on their chemical and physical characteristics: (1) Adhesives: HPC, PVP, CMC-Na, PEG4000, PEG6000 and sodium alginate; (2) Fillers: lactose, MCC and mannitol; (3) Co-solvents: PG, glycerin, PEG200 and PEG400; (4) Surfactants: Tween 20, Tween 80, SLS, S40, F68, Triton X-100, RH40 and EL35; (5) Absorption enhancers: lecithin and oleic acid; (6)Antioxidants: Vit.C and NaHSO3. […] All data were analysed using the mean of duplicate determinations. […]
# (§2) The Ki, Km and Vmax values and inhibition types were determined by fitting the kinetic data to a competitive, noncompetitive, uncompetitive or mixed inhibition model by the Enzyme Kinetics Module using SigmaPlot 12.0 (Systat Software, Inc., San Jose, CA). […]
# recombinant human CES1A1 [2] = target: T1, recombinant human CES1A1; experiment: p-Nitrophenyl acetate hydrolase activity of recombinant CES1A1; type: biochemical
# Experimental: (§3) p-Nitrophenyl acetate hydrolase activity was determined according to the methods described previously.
# (§4) To compare the inhibitory effects, the enzyme activities at 150 μM p-nitrophenyl acetate were examined. The concentrations of the tested excipients were 500 μM, except that F68, EL35, RH40, lecithin, PVP and Sodium alginate were 100 μg/ml. […] The concentration range of inhibitors was as follows: SLS, 0.02–0.5 μg/ml, RH40, 0.1–5 μg/ml, Tween 20, 0.5–15 μg/ml, and EL 35, 3–40 μg/ml.
# recombinant human CES2 = target: T2, recombinant human CES2 (Homo sapiens, UniProt O00748); experiment: p-Nitrophenyl acetate hydrolase activity of recombinant CES2; type: biochemical
# T2 construct: purchased BD Gentest (Woburn, MA); host or cells: baculovirus-insect cells
# T2 sequence (O00748 27-559): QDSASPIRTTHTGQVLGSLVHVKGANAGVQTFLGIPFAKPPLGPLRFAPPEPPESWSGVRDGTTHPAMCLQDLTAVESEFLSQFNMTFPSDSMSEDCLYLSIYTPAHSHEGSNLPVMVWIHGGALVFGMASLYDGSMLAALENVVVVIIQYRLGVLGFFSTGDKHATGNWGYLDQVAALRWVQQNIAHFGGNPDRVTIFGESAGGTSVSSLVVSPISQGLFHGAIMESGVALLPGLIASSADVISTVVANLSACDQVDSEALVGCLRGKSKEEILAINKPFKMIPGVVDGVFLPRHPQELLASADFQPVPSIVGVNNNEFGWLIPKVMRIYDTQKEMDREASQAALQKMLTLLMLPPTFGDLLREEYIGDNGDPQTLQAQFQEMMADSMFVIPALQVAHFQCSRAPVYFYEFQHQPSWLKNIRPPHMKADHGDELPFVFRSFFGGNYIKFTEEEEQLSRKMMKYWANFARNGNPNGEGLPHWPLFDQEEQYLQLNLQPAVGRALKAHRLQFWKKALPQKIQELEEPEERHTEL
# Experimental: as §3, §4
# [3] = target: T3, human liver microsomes (HLM) (Homo sapiens, UniProt P23141); experiment: Imidapril hydrolase activity (imidaprilat formation) of HLM; type: biochemical
# T3 construct: Pooled human liver microsomes (HLM) were purchased from BD Gentest; tissue BD Gentest (Woburn, MA); host or cells: pooled human liver microsomes
# T3 sequence (P23141 18-567): T1 sequence (P23141 18-567)
# Experimental: as §1, with “The calibration curve of imidaprilat in the incubation mixture was linear over a concentration range of 5–1000 ng·ml^−1 (r = 0.9991). Interday and intraday coefficients of variation of the different quality control samples were both less than 10%.” left out
# The inhibitory effects of 25 excipients on imidapril and CPT-11 hydrolase activities were investigated. […] All data were analysed using the mean of duplicate determinations. […]
# as §2
# [4] = 150 μM p-nitrophenyl acetate, excipients 500 μM except F68, EL35, RH40, lecithin, PVP, sodium alginate 100 μg/ml
Structure (SMILES),Ki (CES1A1 and CES2) [nM],"imidapril hydrolase activity, percentage of control (recombinant human CES1A1 [1]; 100 μM imidapril, excipients 500 μM except F68, EL35, RH40, lecithin, PVP, sodium alginate 100 μg/ml, control 1.83 nmol/min/mg) [%]","inhibition type, imidapril hydrolase activity (recombinant human CES1A1 [1]; recombinant CES1A1)","Ki, imidapril hydrolase activity (recombinant human CES1A1 [1]; recombinant CES1A1, imidapril 25-200 μM, mean ± S.E.) [µg/mL]","p-nitrophenyl acetate hydrolase activity, percentage of control (recombinant human CES1A1 [2]; [4]) [%]","IC50, p-nitrophenyl acetate hydrolase activity (recombinant human CES1A1 [2]; 150 μM substrate) [µg/mL]","p-nitrophenyl acetate hydrolase activity, percentage of control (recombinant human CES2; [4])","IC50, p-nitrophenyl acetate hydrolase activity (recombinant human CES2; 150 μM substrate) [µg/mL]","inhibition type, imidapril hydrolase activity [3]"
CCC(C)(C)C(=O)O[C@H]1C[C@@H](C)C=C2C=C[C@H](C)[C@H](CC[C@@H]3C[C@@H](O)CC(=O)O3)[C@H]21 [simvastatin],110,,,,,,,,
Cc1c(C)c2c(c(C)c1O)CCC(C)(COc1ccc(CC3SC(=O)NC3=O)cc1)O2 (stereo not shown) [troglitazone],620,,,,,,,,
"CCCCCCCCCCCCOS(=O)(=O)[O-].[Na+] [SLS, sodium lauryl sulphate]",,2.9,competitive-type,0.04 ± 0.01,3.6,0.20,30–60%,0.30,competitive-type
